Data on eight compounds can be found in patent US20050032124A1, “Identification of genotype-selective agents for treating Huntington's disease” (priority 2003, published 2005).

Holding throughout (experiment): Calcein AM viability assay, dilution-series retest
The subject of experiment [1] is BJ primary cells. It is filed as cell-based, human. Conditions: Homo sapiens, 48 h, read-out: concentration required to achieve 50% inhibition of calcein AM staining (IC50), BJ. An excerpt: (§1) Described here is work carried out to identify compounds with increased potency or activity in the presence of hTERT, LT, ST, E6, E7 or RAS^V12. Engineered cell lines with these genetic elements were used to screen […] compounds, including 20,000 compounds from a combinatorial library, 1,990 compounds from the National Cancer Institute diversity collection, and 1,540 biologically active known compounds that were selected and purchased by Applicant and formatted into a screenable collection. The primary screen tested (in quadruplicate) the effect of treating tumorigenic BJ-TERT/LT/ST/RAS^V12 engineered tumorigenic cells with each compound for 48 hours at a concentration of 4 μg/mL, corresponding to 10 μM for a compound with a molecular weight of 400, which is the approximate median molecular weight of the libraries. Cell viability was measured using the dye calcein acetoxymethyl ester (calcein AM) (Wang et al., 1993, Hum. Immunol. 3 7, 264-270), which is a non-fluorescent compound that freely diffuses into cells. In live cells, calcein AM is cleaved by intracellular esterases, forming the anionic fluorescent derivative calcein, which cannot diffuse out of live cells. […] The IC50 value (concentration required to inhibit 50% of the calcein AM signal) was calculated for each compound in each cell line (Table 1). […] Following is a more detailed analysis of these nine compounds.
(§2) Calcein acetoxylmethyl ester (AM) is a cell membrane-permeable, non-fluorescent compound that is cleaved by intracellular esterases to form the anionic, cell-impermeable, fluorescent compound calcein. Viable cells are stained by calcein because of the presence of intracellular esterases and because the intact plasma membrane prevents fluorescent calcein from leaking out of cells (Wang et al., 1993, supra). Cells were seeded in 384-well plates using a Zymark Sciclone ALH, treated with each compound in triplicate at 4 μg/mL in the primary screen for two days, washed with phosphate-buffered saline on a Packard Minitrak with a 384-well washer and incubated for four hours with 0.7 μg/mL calcein (Molecular Probes). Total fluorescence intensity in each well was recorded on a Packard Fusion platereader, and converted to a percent inhibition of signal by subtracting the instrument background and dividing by the average signal obtained when cells were not treated with any compound.
(§3) Replica daughter plates were prepared with a Zymark Sciclone ALH and integrated Twister II by diluting stock plates 50 fold in medium lacking serum and pen/strep to obtain a compound concentration in daughter plates of 80 μg/ml with 2% DMSO. Assay plates were prepared by seeding cells in black, clear bottom 384-well plates in columns 1-23 (6000 cells/well in 57 μl) using a syringe bulk dispenser. Columns 3-22 were treated with compounds from a daughter library plate by transferring 3 μl from the daughter library plate using 384-position fixed cannula array. The final compound concentrations in assay plates were thus 4 μg/ml. The assay plates were incubated for 48 hours at 37° C. in humidified incubator containing 5% CO2. Plate processing for the calcein AM viability assay was performed using an integrated Minitrak/Sidetrak robotic system from Packard Bioscience (Perkin Elmer). Assay plates were washed with phosphate buffered saline, and 20 μl of calcein AM (0.7 μg/ml) per well was added. Plates were incubated at room temperature for 4 hours. Fluorescence intensity was determined using a Fusion platereader with filters centered on an excitation of 485 nm and an emission of 535 nm.
(§4) Compounds to be retested were purchased from manufacturers. Stocks were prepared in DMSO at a concentration of 1 mg/ml in 384-well polypropylene plates with a 16-point, two-fold dilution dose curve of each compound in a column, in duplicates. Column 1-2 and 23-24 were left empty for controls. […]

Experiment [2] concerns BJ-TERT/LT/RAS^V12/ST cells. It is filed as cell-based, human. The note with it: Homo sapiens, 48 h, read-out: IC50, BJ-TERT/LT/Ras^V12/ST.
Excerpt: as §1, §2, §3, §4

For experiment [3], the system named is BJ-TERT/LT/ST cells. It is filed as cell-based, human. Conditions: Homo sapiens, 48 h, read-out: IC50, BJ-TERT/LT/ST.
Excerpt: as §1, §2, §3, §4

In experiment [4] the test system is BJ-TERT/LT/RAS^V12 cells. The format is cell-based. The note with it: Homo sapiens, 48 h, read-out: IC50, BJ-TERT/LT/Ras^V12.
Excerpt: as §1, §2, §3, §4

For experiment [5], the system named is TIP5/TERT/E6 cells. It is filed as cell-based. The note with it: Homo sapiens, 48 h, read-out: IC50, TIP-TERT/E6.
Excerpt: (§5) In a third series, cell lines derived from independently prepared human TIP5 foreskin fibroblasts created by introducing cDNA constructs encoding hTERT, LT, ST and RASV12 (Lessnick et al., 2002, Cancer Cell 1, 393-401) were used. These cell lines were called, respectively: TIP5/TERT, TIP5/TERT/LT, TIP5/TERT/LT/ST, and TIP5/TERT/LT/ST/RAS^V12. In a fourth series, cell lines derived from TIP5 fibroblasts created by introducing cDNA constructs encoding hTERT, E6, E7, ST and RAS^V12 were used. These cell lines were named, respectively: TIP5/TERT/E6, TIP5/TERT/E6/E7, TIP5/TERT/E6/E7/ST, and TIP5/TERT/E6/E7/ST/RAS^V12. In this series, HPV E6 and E7, which inactivate p53 and RB, respectively, serve a similar function as LT in the previous series. However, by using HPV E6 and E7, Applicants were able to observe the effects of inactivating, separately and independently, p53 and RB. Results of a large-scale screen for compounds that display selective killing of these engineered tumorigenic cell lines are described in the examples that follow.
as §2, §3
(§6) Compounds to be retested were purchased from manufacturers. Stocks were prepared in DMSO at a concentration of 1 mg/ml in 384-well polypropylene plates with a 16-point, two-fold dilution dose curve of each compound in a column, in duplicates. Column 1-2 and 23-24 were left empty for controls. Daughter retest plates were prepared from stock retest plate by diluting 66.6 fold in DMEM in 384-well deep-deep well plates (4.5 μl transfer into 300 μl). Cells were seeded at a density of 6000 per well in 40 μl, and 20 μl was added from a daughter retest plate. The plates were incubated for two days at 37° C. with 5% CO2.
(§7) Mean RFU (relative fluorescence units) for untreated cells was calculated by averaging columns 1, 2, and 23 (wells with cells but lacking compounds). […]

In experiment [6] the test system is TIP5/TERT/LT/ST cells. The format is cell-based. The note with it: Homo sapiens, 48 h, read-out: IC50, TIP5 TERT/LT/ST.
Excerpt: as §5, §2, §3, §6, §7

Where [7] appears, read: BJ cells, 16-point two-fold dilution, two days.
[8] abbreviates: BJ-TERT/LT/Ras^V12/ST cells, 16-point two-fold dilution, two days.
The mark [9] stands for this setting: BJ-TERT/LT/ST cells, 16-point two-fold dilution, two days.
[10] abbreviates: BJ-TERT/LT/Ras^V12 cells, 16-point two-fold dilution, two days.
Setting [11] is: TIP-TERT/E6 cells, 16-point two-fold dilution, two days.
[12] abbreviates: TIP5 TERT/LT/ST cells, 16-point two-fold dilution, two days.

Values after ≈ are worked out from the molar mass of the structure shown. Where two headings read alike, the source gives them in different places.

With `COc1ccc(C[C@H]2C(=O)N[C@@H](C)C(=O)N(C)[C@@H]3C(=O)N(C)[C@@H](Cc4ccc(O)c(c4)Oc4ccc(cc4)[C@@H]3O)C(=O)N[C@H](C)C(=O)N[C@@H](C)C(=O)N2C)cc1` [Bouvardin], the IC50 in experiment [1] (BJ) was 0.312 µg/mL (≈ 0.404 µM); in experiment [2], 0.0195 µg/mL (≈ 0.0252 µM); in experiment [3], 0.0195 µg/mL (≈ 0.0252 µM); in experiment [4], 0.078 µg/mL (≈ 0.101 µM); in experiment [5] it was 0.078 µg/mL (≈ 0.101 µM); in experiment [6], 0.039 µg/mL (≈ 0.0505 µM).
As for `CC[C@@]1(O)C(=O)OCc2c1cc1n(c2=O)Cc2cc3ccccc3nc2-1` [Camptothecin], the IC50 in experiment [1] (setting [7]) is more than 5 µg/mL; in experiment [2] (setting [8]), 0.0195 µg/mL (≈ 0.056 µM); in experiment [3] (setting [9]) it was 1.25 µg/mL (≈ 3.59 µM); in experiment [4] (setting [10]), 1.25 µg/mL (≈ 3.59 µM); in experiment [5] (setting [11]) it was more than 5 µg/mL; in experiment [6] (setting [12]) it was 0.156 µg/mL (≈ 0.448 µM).
Take `COc1cccc2c1C(=O)c1c(O)c3c(c(O)c1C2=O)C[C@@](O)(C(C)=O)C[C@@H]3O[C@H]1C[C@H](N)[C@H](O)[C@H](C)O1` [Daunorubicin]: the IC50 in experiment [1] (BJ) is 5 µg/mL (≈ 9.48 µM); in experiment [2] it was 0.625 µg/mL (≈ 1.18 µM); in experiment [3] it was 0.312 µg/mL (≈ 0.591 µM); in experiment [4] it was 1.25 µg/mL (≈ 2.37 µM); in experiment [5], 5 µg/mL (≈ 9.48 µM); in experiment [6], 0.625 µg/mL (≈ 1.18 µM).
`COc1cccc2c1C(=O)c1c(O)c3c(c(O)c1C2=O)C[C@@](O)(C(=O)CO)C[C@@H]3O[C@H]1C[C@H](N)[C@H](O)[C@H](C)O1` [Doxorubicin]: the IC50 in experiment [1] (setting [7]) is more than 5 µg/mL; in experiment [2] (setting [8]) it was 1.25 µg/mL (≈ 2.3 µM); in experiment [3] (setting [9]), 0.312 µg/mL (≈ 0.574 µM); in experiment [4] (setting [10]), 1.25 µg/mL (≈ 2.3 µM); in experiment [5] (setting [11]), 5 µg/mL (≈ 9.2 µM); in experiment [6] (setting [12]), 0.625 µg/mL (≈ 1.15 µM).
As for `CS[C@H]1SC[C@H]2C(=O)N(C)[C@@H](C(C)C)C(=O)OC[C@@H](NC(=O)c3cnc4ccccc4n3)C(=O)N[C@@H](C)C(=O)N(C)[C@@H]1C(=O)N(C)[C@@H](C(C)C)C(=O)OC[C@@H](NC(=O)c1cnc3ccccc3n1)C(=O)N[C@@H](C)C(=O)N2C` [Echinomycin], the IC50 in experiment [1] (BJ) is more than 5 µg/mL; in experiment [2], 0.0012 µg/mL (≈ 0.00109 µM); in experiment [3], 0.0048 µg/mL (≈ 0.00436 µM); in experiment [4] it was 0.0048 µg/mL (≈ 0.00436 µM); in experiment [5], more than 5 µg/mL; in experiment [6], 0.0048 µg/mL (≈ 0.00436 µM).
`CCOc1ccccc1-n1c(C(C)N2CCN(C(=O)COc3ccc(Cl)cc3)CC2)nc2ccccc2c1=O` (stereo not drawn) [Erastin]: the IC50 in experiment [1] (setting [7]) is more than 5 µg/mL; in experiment [2] (setting [8]), 1.25 µg/mL (≈ 2.28 µM); in experiment [3] (setting [9]), more than 5 µg/mL; in experiment [4] (setting [10]), more than 5 µg/mL; in experiment [5] (setting [11]), more than 5 µg/mL; in experiment [6] (setting [12]), 5 µg/mL (≈ 9.14 µM).
Regarding `O=C1c2c(O)ccc(O)c2C(=O)c2c(NCCNCCO)ccc(NCCNCCO)c21` [Mitoxantrone], the IC50 in experiment [1] (setting [7]) was 5 µg/mL (≈ 11.2 µM); in experiment [2] (setting [8]), 0.312 µg/mL (≈ 0.702 µM); in experiment [3] (setting [9]), 0.312 µg/mL (≈ 0.702 µM); in experiment [4] (setting [10]) it was 1.25 µg/mL (≈ 2.81 µM); in experiment [5] (setting [11]) it was 1.25 µg/mL (≈ 2.81 µM); in experiment [6] (setting [12]), 0.625 µg/mL (≈ 1.41 µM).
Take `NC(=O)c1cn([C@@H]2O[C@H](CO)[C@@H](O)[C@H]2O)c2ncnc(N)c12` [Sangivamycin]: the IC50 was 0.312 µg/mL (≈ 1.01 µM) in experiment [1] (BJ); 0.078 µg/mL (≈ 0.252 µM) in experiment [2]; 0.195 µg/mL (≈ 0.63 µM) in experiment [3]; 0.078 µg/mL (≈ 0.252 µM) in experiment [4]; 0.156 µg/mL (≈ 0.504 µM) in experiment [5]; 0.039 µg/mL (≈ 0.126 µM) in experiment [6].
